From paper PMC10381309 (Journal of Fungi, 2023)
≈ marks a conversion by molar mass, not a printed value.

Assays:
[1] = system: Fonsecaea pedrosoi (CFP 00791); test: NIH Clinical Collection screening for antifungal activity (growth inhibition, OD 530 nm); type: cell-based; conditions: 10 µM; CFP00791 Fonsecaea pedrosoi isolate; 72–96 h; read-out: % Growth Inhibition
Protocol: These substances are part of the NIH Roadmap Molecular Libraries Screening Centers Network screening library, a collection of chemically diverse substances in Phase I-III clinical trials. Each substance was initially diluted to 1 mM in DMSO and stored at −20 °C until use. […] The final DMSO concentration corresponded to 0.5% v/v. The inoculum was prepared according to the protocol for filamentous fungi proposed by the European Committee on Antimicrobial Susceptibility Testing—EUCAST, with minor modifications. […] After growth, conidia were suspended in 3 mL of sterile distilled water with 0.1% Tween 20, vortexed, and the concentration adjusted to the 0.5 McFarland scale. The suspension was then diluted 1:10 in order to obtain a final working inoculum at 2–5 × 10^5 CFU/mL. Next, 100 µL of the inoculum was added to each well and the plates incubated at 35 °C for 72–96 h. Negative and positive controls consisted of culture medium alone and drug-free culture medium with the fungal inoculum previously described, respectively. Plates were read using a microplate reader (Epoch, Biotek, Wenusky, VT, USA) with a 530 nm filter to obtain the optical density. All plates were also visually read to confirm the equipment data. A calculation was performed to obtain the percentage of inhibition of fungal growth, according to the formula: (1 − (OD1/OD2)) × 100, where OD1 = optical density of the fungus in the presence of the drug; and OD2 = optical density of the growth control drug-free well.

[2] = system: Fonsecaea nubica (CFP 00912); test: MIC determination (EUCAST, minor modifications); type: cell-based; conditions: F. nubica; for Selectivity Index (SI): CC50 Vero 24 h / MIC; for MIC: Fonsecaea nubica, 100% growth inhibition, read-out: MIC
Protocol: (§1) Minimum inhibitory concentrations (MICs) were determined using the method proposed by the European Committee on Antimicrobial Susceptibility Testing (EUCAST), with minor modifications. Hit drugs were serially diluted (80 μM to 0.15625 μM) in RPMI 1640 (twice concentrated, pH 7; supplemented with 2% glucose) buffered with MOPS in 96-well plates. The inoculums of all strains were prepared following the EUCAST protocol. Plates were incubated at 35 °C for 72–96 h. The MIC of the NCC substances was determined as the lowest concentration capable of inhibiting 100% of fungal growth when compared to the growth control well. MIC values were determined in duplicate.

[3] = system: Fonsecaea monophora (CFP 00911); test: MIC determination (EUCAST, minor modifications); type: cell-based; conditions: F. monophora; for Selectivity Index (SI): CC50 Vero 24 h / MIC; for MIC: Fonsecaea monophora, 100% growth inhibition, read-out: MIC
Protocol: as §1

[4] = system: Exophiala dermatitidis (ATCC 28869); test: MIC determination (EUCAST, minor modifications); type: cell-based; conditions: E. dermatitidis; for Selectivity Index (SI): CC50 Vero 24 h / MIC; for MIC: Exophiala dermatitidis, ATCC28869, 100% growth inhibition, read-out: MIC
Protocol: as §1

[5] = system: Fonsecaea pedrosoi (CFP 00791); test: MIC determination (EUCAST, minor modifications); type: cell-based; conditions: F. pedrosoi; for Selectivity Index (SI): CC50 Vero 24 h / MIC; for MIC: Fonsecaea pedrosoi, 100% growth inhibition, read-out: MIC
Protocol: as §1

[6] = system: Cladophialophora carrionii (CFP 00910); test: MIC determination (EUCAST, minor modifications); type: cell-based; conditions: C. carrionii; for Selectivity Index (SI): CC50 Vero 24 h / MIC; for MIC: Cladophialophora carrionii, 100% growth inhibition, read-out: MIC
Protocol: as §1

[7] = system: Rhinocladiela similis (CFP 00790); test: MIC determination (EUCAST, minor modifications); type: cell-based; conditions: R. similis; for MIC: 100% growth inhibition, read-out: MIC; for Selectivity Index (SI): CC50 Vero 24 h / MIC
Protocol: as §1

[8] = system: Exophiala heteromorpha (ATCC 28180); test: MIC determination (EUCAST, minor modifications); type: cell-based; conditions: E. heteromorpha; for Selectivity Index (SI): CC50 Vero 24 h / MIC; for MIC: Exophiala heteromorpha, ATCC28180, 100% growth inhibition, read-out: MIC
Protocol: as §1

[9] = system: Phialophora verrucosa (CFP 00937); test: MIC determination (EUCAST, minor modifications); type: cell-based; conditions: P. verrucosa; for Selectivity Index (SI): CC50 Vero 24 h / MIC; for MIC: Phialophora verrucosa, 100% growth inhibition, read-out: MIC
Protocol: as §1

[10] = system: Cladophialophora carrionii (CFP 00910); test: Minimum fungicidal concentration determination; type: cell-based; conditions: C. carrionii; for MFC: Cladophialophora carrionii, read-out: MFC
Protocol: The MFC was determined as the lowest drug concentration without fungal growth on Sabouraud agar after five days of incubation at 35 °C.

[11] = system: Fonsecaea nubica (CFP 00912); test: Minimum fungicidal concentration determination; type: cell-based; conditions: F. nubica; for MFC: Fonsecaea nubica, read-out: MFC
Protocol: (§2) Minimum fungicidal concentration (MFC) was determined in triplicate by transferring a 5 μL aliquot from each well without fungal growth of the microdilution plates used for MIC determination, as described above, onto 2% glucose Sabouraud agar (Sigma Chemical Corporation). The MFC was determined as the lowest drug concentration without fungal growth on Sabouraud agar after five days of incubation at 35 °C. When the MFC/MIC ratio of a hit drug was 1 or 2, the substance was considered fungicidal against the pathogen. If this ratio was greater than 2, the hit drug was considered to be fungistatic.

[12] = system: Fonsecaea monophora (CFP 00911); test: Minimum fungicidal concentration determination; type: cell-based; conditions: F. monophora; for MFC: Fonsecaea monophora, read-out: MFC
Protocol: as §2

[13] = system: Exophiala dermatitidis (ATCC 28869); test: Minimum fungicidal concentration determination; type: cell-based; conditions: E. dermatitidis; for MFC: Exophiala dermatitidis, ATCC28869, read-out: MFC
Protocol: as §2

[14] = system: Fonsecaea pedrosoi (CFP 00791); test: Minimum fungicidal concentration determination; type: cell-based; conditions: F. pedrosoi; for MFC: Fonsecaea pedrosoi, read-out: MFC
Protocol: as §2

[15] = system: Rhinocladiela similis (CFP 00790); test: Minimum fungicidal concentration determination; type: cell-based; conditions: R. similis; for MFC: read-out: MFC
Protocol: as §2

[16] = system: Exophiala heteromorpha (ATCC 28180); test: Minimum fungicidal concentration determination; type: cell-based; conditions: E. heteromorpha; for MFC: Exophiala heteromorpha, ATCC28180, read-out: MFC
Protocol: as §2

[17] = system: Phialophora verrucosa (CFP 00937); test: Minimum fungicidal concentration determination; type: cell-based; conditions: P. verrucosa; for MFC: Phialophora verrucosa, read-out: MFC
Protocol: as §2

VERO cells (ATCC CCL-81) = test: Cytotoxicity of hit drugs, MTT, 24 h; type: cell-based; conditions: African green monkey
Protocol: VERO cells (ATCC® CCL-81, a kidney tissue derived from a normal adult African green monkey) were cultured in 199 medium with Earle’s salts supplemented with 100 U/mL of penicillin–100 µg/mL of streptomycin (Cultilab LTDA, São Paulo, Brazil) and 10% fetal bovine serum (FBS, Cultilab LTDA, Brazil) in an incubator at 37 °C with 5% CO2. Cells were subcultured in 25 or 75 cm^2 culture flasks once a week and the culture medium was also changed once a week. The cells used in the experiments were from passages 10 to 29 [42]. Cytotoxicity assays to assess cell viability were performed in 96-well plates with 5 × 10^4 cells/well that were exposed to hit drug solutions for 24 h at 37 °C in an incubator with 5% CO2. […]. A solution of 10% Tween 80 solution was used as the positive cellular death control. Wells with VERO cells receiving only the culture medium with or without 1% DMSO were also included as positive cellular growth controls.
The 3-(4,5-dimethylthiazol-2-yl)-2,5-diphenyltetrazolium bromide (MTT, Sigma-Aldrich®, USA) reagent dissolved in PBS, pH 7.4, was used to check cell viability. Results were read at 492 nm on a Thermo Scientific® Multiskan microplate spectrophotometer reader and expressed as percent cell viability in the culture medium after addition of a 10% Tween 80 solution.

[18] = system: Fonsecaea pedrosoi (CFP 00791); conditions: F. pedrosoi; PDA; 7 days, 37 °C; albendazole at ½ MIC
Protocol: (§3) At the end of the seven days of incubation at 37 °C, the plates were read visually. The aspect of the colonies supplemented with albendazole were compared to those of the positive melanin and inhibition melanin controls, to determine whether the color of the albendazole-supplemented cultures resembled the positive DHN-melanin or the melanin inhibition control. Pictures of the colonies were captured using a Canon EOS Rebel T7+ digital camera.

[19] = system: Exophiala heteromorpha (ATCC 28180); conditions: E. heteromorpha; PDA; 7 days, 37 °C; albendazole at ½ MIC
Protocol: as §3

[20] = system: Cladophialophora carrionii (CFP 00910); conditions: C. carrionii; PDA; 7 days, 37 °C; albendazole at ½ MIC
Protocol: as §3

Compound | inhibition at 10 µM [1] | Selectivity Index (SI) [2] | MIC [2] | Selectivity Index (SI) [3] | MIC [3] | Selectivity Index (SI) [4] | MIC [4] | Selectivity Index (SI) [5] | MIC [5] | Selectivity Index (SI) [6] | MIC [6] | MIC [7] | Selectivity Index (SI) [7] | Selectivity Index (SI) [8] | MIC [8] | Selectivity Index (SI) [9] | MIC [9] | MFC:MIC Ratio [10] | fungicidal or fungistatic (MFC/MIC ratio) [10] | MFC [10] | other results
COC(=O)Nc1nc2ccc(C(=O)c3ccccc3)cc2[nH]1 [Mebendazole] | 83% | 67.79 | 5 µM (≈ 1.48 µg/mL) | 135.59 | 2.5 µM (≈ 0.738 µg/mL) | 16.94 | 20 µM (≈ 5.91 µg/mL) | 67.79 | 5 µM (≈ 1.48 µg/mL) | 135.59 | 2.5 µM (≈ 0.738 µg/mL) | 5 µM (≈ 1.48 µg/mL) | 67.79 | 67.79 | 5 µM (≈ 1.48 µg/mL) | 67.79 | 5 µM (≈ 1.48 µg/mL) | 1 | fungicidal (When the MFC/MIC ratio of a hit drug was 1 or 2, the substance was considered fungicidal) | 2.5 µM (≈ 0.738 µg/mL) | MFC:MIC Ratio [11]: >16; MFC [11]: > 80 µM; MFC:MIC Ratio [12]: 32; MFC [12]: 80 µM (≈ 23.6 µg/mL); MFC:MIC Ratio [13]: >4; MFC [13]: > 80 µM; MFC:MIC Ratio [14]: 1; fungicidal or fungistatic (MFC/MIC ratio) [14]: fungicidal (When the MFC/MIC ratio of a hit drug was 1 or 2, the substance was considered fungicidal); MFC [14]: 5 µM (≈ 1.48 µg/mL); MFC:MIC Ratio [15]: >16; MFC [15]: > 80 µM; MFC:MIC Ratio [16]: >16; MFC [16]: > 80 µM; MFC:MIC Ratio [17]: 2; fungicidal or fungistatic (MFC/MIC ratio) [17]: fungicidal (When the MFC/MIC ratio of a hit drug was 1 or 2, the substance was considered fungicidal); MFC [17]: 10 µM (≈ 2.95 µg/mL); CC50 (translated from >100 μg/mL) (VERO cells (ATCC CCL-81)): ~338.98 µM
c1ccc2[nH]c(-c3cscn3)nc2c1 [Thiabendazole] | 82% | 99.50 | 5 µM (≈ 1.01 µg/mL) | 99.50 | 5 µM (≈ 1.01 µg/mL) | 49.75 | 10 µM (≈ 2.01 µg/mL) | 99.50 | 5 µM (≈ 1.01 µg/mL) | 99.50 | 5 µM (≈ 1.01 µg/mL) | 10 µM (≈ 2.01 µg/mL) | 49.75 | 49.75 | 10 µM (≈ 2.01 µg/mL) | 99.50 | 5 µM (≈ 1.01 µg/mL) | 1 | fungicidal (When the MFC/MIC ratio of a hit drug was 1 or 2, the substance was considered fungicidal) | 5 µM (≈ 1.01 µg/mL) | MFC:MIC Ratio [11]: 1; fungicidal or fungistatic (MFC/MIC ratio) [11]: fungicidal (When the MFC/MIC ratio of a hit drug was 1 or 2, the substance was considered fungicidal); MFC [11]: 5 µM (≈ 1.01 µg/mL); MFC:MIC Ratio [12]: 1; fungicidal or fungistatic (MFC/MIC ratio) [12]: fungicidal (When the MFC/MIC ratio of a hit drug was 1 or 2, the substance was considered fungicidal); MFC [12]: 5 µM (≈ 1.01 µg/mL); MFC:MIC Ratio [13]: 8; MFC [13]: 80 µM (≈ 16.1 µg/mL); MFC:MIC Ratio [14]: 1; fungicidal or fungistatic (MFC/MIC ratio) [14]: fungicidal (When the MFC/MIC ratio of a hit drug was 1 or 2, the substance was considered fungicidal); MFC [14]: 5 µM (≈ 1.01 µg/mL); MFC:MIC Ratio [15]: 4; MFC [15]: 40 µM (≈ 8.05 µg/mL); MFC:MIC Ratio [16]: 8; MFC [16]: 80 µM (≈ 16.1 µg/mL); MFC:MIC Ratio [17]: 4; MFC [17]: 20 µM (≈ 4.03 µg/mL)
Cc1cccc2sc3nncn3c12 [tricyclazole] | – | – | – | – | – | – | – | – | – | – | – | – | – | – | – | – | – | – | – | – | melanin production [18]: changes the color of colonies from dark green, gray or black (due to melanin) to reddish brown; melanin production [19]: changes the color of colonies from dark green, gray or black (due to melanin) to reddish brown; melanin production [20]: changes the color of colonies from dark green, gray or black (due to melanin) to reddish brown
